Measured values taken from patent US12415786B2, “Substituted 2-heteroarylaminobenzenes and the salts thereof and their use as herbicidal agents” (Bayer Aktiengesellschaft, priority 2019, dated 2025).

Tests used:
Type in all cases: in vivo
[1] = system: Echinochloa crus-galli; assay: Herbicidal pre-emergence action (greenhouse pots), ECHCG; settings: 1280 g/ha, visual scoring after about 3 weeks vs untreated controls
Excerpt: (§1) In the examples and tables below, the following abbreviations are used: • Undesired Plants/Weeds: • ABUTH: Abutilon theophrasti • AGSTE: Agrostis tenuis • AMARE Amaranthus retroflexus • ECHCG: Echinochloa crus-galli • LOLRI: Lolium rigidum • MATIN: Matricaria inodora • POAAN: Poa annua • SETVI: Setaria viridis • STEME: Stellaria media A. Herbicidal Early Post-Emergence Action Seeds of mono- and dicotyledonous weed plants were placed in plastic pots in sandy loam soil (doubly sown with one species each of mono- or dicotyledonous weed plants per pot) and covered with soil. The compounds of the invention, formulated in the form of wettable powders (WP) or as emulsion concentrates (EC), were then applied onto the surface of the covering soil as aqueous suspension or emulsion with addition of 0.5% additive at a water application rate of 600 liters per hectare (converted). After the treatment, the pots were placed in a greenhouse and kept under good growth conditions for the test plants. After about 3 weeks, the effect of the preparations was scored visually in comparison with untreated controls as percentages. For example, 100% activity=the plants have died, 0% activity=like untreated control plants. Tables C1-C8 below show the effects of selected compounds of the general formula (I) according to Table 1 above on various harmful plants and an application rate corresponding to 1280 g/ha, which were obtained by the experimental procedure mentioned above.

[2] = system: Poa annua; assay: Herbicidal pre-emergence action (greenhouse pots), POAAN; settings: 1280 g/ha, visual scoring after about 3 weeks vs untreated controls
In short: (§2)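 Compounds are applied at 1280 g/ha to the surface of soil covering freshly sown weed seeds. Spray is aqueous suspension or emulsion of WP or EC with 0.5% additive at 600 L/ha. Pots grow in the greenhouse, and visual % activity against untreated controls is rated after about 3 weeks.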

[3] = system: Poa annua; assay: Herbicidal early post-emergence action (96-well microtiter plates), POAAN; settings: 1900 g/ha, scored 9 to 12 days after treatment, 100% = plants have died, 0% = like untreated control plants
In short: (§3)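 Activity was scored by eye 9 to 12 days after treatment (100% = plants dead, 0% = like untreated controls). Spraying used emulsion concentrates at 1900 g/ha in 2200 L/ha water, applied to cotyledon-stage seedlings raised 5 to 7 days in quartz sand in 96-well plates under controlled conditions.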

[4] = system: Amaranthus retroflexus; assay: Herbicidal pre-emergence action (greenhouse pots), AMARE; settings: 1280 g/ha, visual scoring after about 3 weeks vs untreated controls
In short: as §2

[5] = system: Amaranthus retroflexus; assay: Herbicidal post-emergence action (greenhouse pots), AMARE; settings: 1280 g/ha, visual rating about 3 weeks after treatment vs untreated controls
In short: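 Compounds were applied at 1280 g/ha to the green parts of one-leaf-stage greenhouse weeds, using WP/EC formulations in 600 L/ha water plus 0.5% additive. Visual percent activity was scored around 3 weeks later relative to untreated plants, with 100% meaning plant death.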

[6] = system: Agrostis tenuis; assay: Herbicidal early post-emergence action (96-well microtiter plates), AGSTE; settings: 1900 g/ha, scored 9 to 12 days after treatment, 100% = plants have died, 0% = like untreated control plants
In short: as §3

[7] = system: Abutilon theophrasti; assay: Herbicidal pre-emergence action (greenhouse pots), ABUTH; settings: 1280 g/ha, visual scoring after about 3 weeks vs untreated controls
Excerpt: as §1

[8] = system: Setaria viridis; assay: Herbicidal pre-emergence action (greenhouse pots), SETVI; settings: 1280 g/ha, visual scoring after about 3 weeks vs untreated controls
In short: as §2

[9] = system: Matricaria inodora; assay: Herbicidal pre-emergence action (greenhouse pots), MATIN; settings: 1280 g/ha, visual scoring after about 3 weeks vs untreated controls
Excerpt: as §1

[10] = system: Stellaria media; assay: Herbicidal pre-emergence action (greenhouse pots), STEME; settings: 1280 g/ha, visual scoring after about 3 weeks vs untreated controls
In short: as §2

[11] = system: Abutilon theophrasti; assay: Herbicidal post-emergence action (greenhouse pots), ABUTH; settings: 1280 g/ha, visual rating about 3 weeks after treatment vs untreated controls
Excerpt: (§4) In the examples and tables below, the following abbreviations are used: • Undesired Plants/Weeds: • ABUTH: Abutilon theophrasti • AGSTE: Agrostis tenuis • AMARE Amaranthus retroflexus • ECHCG: Echinochloa crus-galli • LOLRI: Lolium rigidum • MATIN: Matricaria inodora • POAAN: Poa annua • SETVI: Setaria viridis • STEME: Stellaria media A. Herbicidal Early Post-Emergence Action Seeds of mono- and dicotyledonous weed plants were placed in plastic pots in sandy loam soil (doubly sown with in each case one species of mono- or dicotyledonous weed plants per pot), covered with soil and cultivated in a greenhouse under controlled growth conditions. 2 to 3 weeks after sowing, the test plants were treated at the one-leaf stage. The compounds of the invention, formulated in the form of wettable powders (WP) or as emulsion concentrates (EC), were applied onto the green parts of the plants as aqueous suspension or emulsion with addition of 0.5% additive at a water application rate of 600 liters per hectare (converted). After the test plants had been kept in the greenhouse under optimum growth conditions for about 3 weeks, the activity of the preparations was rated visually in comparison to untreated controls. For example, 100% activity=the plants have died, 0% activity=like untreated control plants. Tables B1-B8 below show the effects of selected compounds of the general formula (I) according to Table 1 above on various harmful plants and an application rate corresponding to 1280 g/ha, which were obtained by the experimental procedure mentioned above.

[12] = system: Echinochloa crus-galli; assay: Herbicidal post-emergence action (greenhouse pots), ECHCG; settings: 1280 g/ha, rated after about 3 weeks, 100% = plants have died, 0% = like untreated control plants
Excerpt: as §4

[13] = system: Setaria viridis; assay: Herbicidal post-emergence action (greenhouse pots), SETVI; settings: 1280 g/ha, rated after about 3 weeks, 100% = plants have died, 0% = like untreated control plants
Excerpt: as §4

[14] = system: Stellaria media; assay: Herbicidal post-emergence action (greenhouse pots), STEME; settings: 1280 g/ha, visual rating about 3 weeks after treatment vs untreated controls
Excerpt: as §4

[15] = system: Poa annua; assay: Herbicidal post-emergence action (greenhouse pots), POAAN; settings: 1280 g/ha, visual rating about 3 weeks after treatment vs untreated controls
Excerpt: as §4

[16] = system: Lolium rigidum; assay: Herbicidal pre-emergence action (greenhouse pots), LOLRI; settings: 1280 g/ha, visual scoring after about 3 weeks vs untreated controls
Excerpt: as §1

SMILES | herbicidal activity ECHCG [1] | herbicidal activity POAAN [2] | POAAN (herbicidal activity, scored visually in comparison to untreated controls) [3] | herbicidal activity AMARE [4] | herbicidal activity AMARE [5] | AGSTE (herbicidal activity, scored visually in comparison to untreated controls) [6] | herbicidal activity ABUTH [7] | herbicidal activity SETVI [8] | herbicidal activity MATIN [9] | herbicidal activity STEME [10] | herbicidal activity ABUTH [11] | ECHCG (herbicidal activity, rated visually in comparison to untreated controls) [12] | SETVI (herbicidal activity, rated visually in comparison to untreated controls) [13] | herbicidal activity STEME [14] | herbicidal activity POAAN [15] | herbicidal activity LOLRI [16]
N#Cc1ccc(Oc2c(C#N)cccc2Nc2ncccn2)cc1 [Example 1-261] | 100% | 100% | 80% | 100% | 100% | 80% | 100% | 100% | 100% | 100% | – | – | – | – | – | –
N#Cc1cccc(Nc2ncc(F)cn2)c1Oc1cccc(Cl)c1 [Example 1-268] | – | – | 80% | 90% | 90% | 100% | 90% | – | – | – | – | – | – | – | – | –
N#Cc1cccc(Nc2ncc(F)cn2)c1Oc1ccc(F)cc1F [Example 1-270] | 100% | 100% | 80% | 100% | 100% | 80% | – | 100% | 100% | 100% | 90% | 90% | 90% | 100% | – | –
N#Cc1cccc(Nc2ncc(F)cn2)c1Oc1ccc(Cl)cc1F [Example 1-275] | 90% | 100% | 100% | 100% | 100% | 80% | – | 100% | 90% | 100% | 90% | 90% | 90% | 100% | – | –
N#Cc1cccc(Nc2ncc(F)cn2)c1Oc1ccc(C(F)(F)F)cc1 [Example 1-279] | – | 100% | 100% | 100% | 100% | 80% | – | 100% | 90% | 100% | – | – | – | 100% | 100% | 90%
N#Cc1ccc(Oc2c(C#N)cccc2Nc2ncc(F)cn2)cc1 [Example 1-280] | 100% | 100% | 100% | 100% | 100% | 100% | 100% | 100% | 100% | 100% | – | – | – | 100% | – | –
N#Cc1cccc(Nc2ncc(Cl)cn2)c1Oc1ccc(Cl)cc1 [Example 1-288] | 90% | 100% | 80% | 100% | 100% | 80% | – | 100% | – | 100% | 90% | 100% | 90% | – | 100% | –
N#Cc1cccc(Nc2ncc(Cl)cn2)c1Oc1ccc(F)cc1F [Example 1-289] | – | 100% | 80% | 100% | 100% | 80% | – | 100% | 100% | 100% | 90% | 100% | 90% | 100% | – | –
N#Cc1cccc(Nc2ncc(Cl)cn2)c1Oc1ccc(Cl)cc1F [Example 1-294] | 90% | 100% | 100% | 100% | 100% | 80% | 90% | 100% | – | 100% | – | – | – | 100% | 100% | –
Cc1cnc(Nc2cccc(C#N)c2Oc2ccc(F)cc2)nc1 [Example 1-308] | 90% | 100% | 100% | 100% | 100% | 100% | 100% | 100% | 100% | 100% | 100% | 100% | 100% | 100% | 100% | –
N#Cc1cccc(Nc2ncc(Cl)cn2)c1Oc1ccc(Cl)nc1 [Example 3-56] | 100% | 100% | 100% | 100% | 100% | 100% | 100% | 100% | 100% | 100% | 100% | 100% | 100% | 100% | 100% | –
